Reference: PMC4867616, “Imaging of Cerebral Amyloid Angiopathy with Bivalent ^99mTc-Hydroxamamide Complexes” (Scientific Reports, 2016)

Target: T1, Aβ depositions in human CAA brain sections (Homo sapiens, UniProt P05067)
T1 construct: consistent with the immunohistochemical staining pattern observed in the same brain sections with anti-Aβ(1–40) antibody; from tissue; host or cells: post-mortem human brain, autopsy-confirmed CAA cases
Assay: In vitro autoradiography of human CAA brain sections
Assay type: binding
Conditions: for Labeling of Aβ depositions in brain sections from another patient with CAA: patient with CAA (person)
Method: (§1) Six micrometer thick serial human brain sections of paraffin-embedded blocks were used for autoradiography. To completely deparaffinize the sections, they were incubated in xylene for 30 min two times and in 100% EtOH for 1 min two times. Subsequently, they were subjected to 1-min incubation in 90% EtOH and 1-min incubation in 70% EtOH, followed by a 5-min wash in water. Each slide was incubated with a 50% EtOH solution of [^99mTc]SB2A or [^99mTc]BT2B (370 kBq/mL) at room temperature for 1 h. […] The sections were washed in 50% EtOH for 3 min two times and exposed to a BAS imaging plate (Fuji Film, Tokyo, Japan) for 2 h. Autoradiographic images were obtained using a BAS5000 scanner system (Fuji Film). After autoradiographic examination, the same sections were immunostained by an antibody against Aβ(1–40) to confirm the presence of Aβ depositions. For immunohistochemical staining of Aβ(1–40), the sections were autoclaved for 15 min in 0.01 M citric acid buffer (pH 6.0) to activate the antigen. After three 5-min incubations in PBS-Tween 20 (PBST), they were incubated with anti-Aβ(1–40) primary antibody (BA27; Wako, Osaka, Japan) at room temperature overnight. Subsequently, they were incubated in PBST for 5 min three times, and incubated with biotinylated goat anti-mouse IgG (Wako) at room temperature for 3 h. After three 5-min incubations in PBST, the sections were incubated with Streptavidin-Peroxidase complex at room temperature for 30 min. After three 5-min incubations in PBST, they were incubated with diaminobenzidine (Merck, Hesse, Germany) as a chromogen for 5 min. After washing with water, the sections were observed under a microscope (BIOREVO BZ-9000; Keyence Corp., Osaka, Japan).
as §1, with “In vitro autoradiography of human CAA brain sections. Postmortem brain tissues from autopsy-confirmed cases of CAA (person, and person) and a control (person) were obtained from the Graduate School of Medicine, Kyoto University, National Cerebral and Cardiovascular Center, and BioChain Institute Inc. (California, USA), respectively. Experiments were performed according to the regulations of the ethics committee of Kyoto University. Six” for “Six”, “serial” for “serial human brain”, “Aβ(1-40)” for “Aβ(1–40)”, “Aβ(1-40),” for “Aβ(1–40),”, “anti-Aβ(1-40)” for “anti-Aβ(1–40)”, “After three 5-min incubations in PBST, the sections were incubated with Streptavidin-Peroxidase complex at room temperature for 30 min. After three 5-min incubations in PBST, they were incubated with diaminobenzidine (Merck, Hesse, Germany) as a chromogen for 5 min. After washing with water, the sections were observed under a microscope (BIOREVO BZ-9000; Keyence Corp., Osaka, Japan).” left out

T1 sequence (P05067 672-711 limits assumed): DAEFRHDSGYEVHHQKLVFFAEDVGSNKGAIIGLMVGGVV

Compound | Blocking of labeling of Aβ depositions with excess nonradioactive PIB (adjacent CAA brain section, PIB 1.0 mM) | Accumulation of radioactivity in control brain sections (autoradiography) (brain section from a healthy control (person)) | Labeling of Aβ depositions in CAA brain sections (autoradiography) (brain section from a patient with CAA (person), 370 kBq/mL, 1 h) | Labeling of Aβ depositions in brain sections from another patient with CAA
CN(C)c1ccc(/C=C/c2ccc(C3=N[O][99Tc-]4(=[O])([NH]3)[NH2+]C(c3ccc(/C=C/c5ccc(N(C)C)cc5)cc3)=N[O]4)cc2)cc1 (single isomer, unassigned) [[^99mTc]SB2A] | blocked to a large extent | almost no accumulation of radioactivity | intensively labeled Aβ depositions | intensively labeled Aβ depositions
CN(C)c1ccc(-c2nc3ccc(C4=N[O][99Tc-]5(=[O])([NH]4)[NH2+]C(c4ccc6nc(-c7ccc(N(C)C)cc7)sc6c4)=N[O]5)cc3s2)cc1 [[^99mTc]BT2B] | – | – | – | intensively labeled Aβ depositions
